Reference: PubChem BioAssay (NCI)
Values joined by “and” are separate entries in the source; they are usually repeats but may differ in a detail not shown here. Identical values can stand only once.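 Growth conditions: 96-well plates. Treatment: test compound, 48 hours, 5 concentrations. Analysis: linear interpolation between bracketing concentrations; unreached endpoints set to highest concentration. GI50 is the concentration that inhibits growth by half. TGI is the concentration that stops growth completely.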

Assays:
Assay in all cases: NCI anticancer screen, dose series, 48 h
HCT-116 colon = system: HCT-116 colon
HOP-92 NSCLC = system: HOP-92 NSCLC
HT29 colon = system: HT29 colon
IGROV1 ovarian = system: IGROV1 ovarian
MALME-3M melanoma = system: MALME-3M melanoma
NCI-H522 lung = system: NCI-H522 lung
OVCAR-3 ovarian = system: OVCAR-3 ovarian
SK-MEL-5 melanoma = system: SK-MEL-5 melanoma
UO-31 renal = system: UO-31 renal
NCI-H460 lung = system: NCI-H460 lung

Compound | GI50 (HCT-116 colon) | TGI (HCT-116 colon) | GI50 (HOP-92 NSCLC) | TGI (HOP-92 NSCLC) | GI50 (HT29 colon) | TGI (HT29 colon) | GI50 (IGROV1 ovarian) | TGI (IGROV1 ovarian) | GI50 (MALME-3M melanoma) | TGI (MALME-3M melanoma) | GI50 (NCI-H522 lung) | TGI (NCI-H522 lung) | GI50 (OVCAR-3 ovarian) | TGI (OVCAR-3 ovarian) | GI50 (SK-MEL-5 melanoma) | TGI (SK-MEL-5 melanoma) | GI50 (UO-31 renal) | TGI (UO-31 renal) | TGI (NCI-H460 lung) | GI50 (NCI-H460 lung)
Cc1cc(S(=O)(=O)/N=C(\N)Nc2cccc(O)c2)c(SCc2ccccc2)cc1Cl | 12.6 µM | 34 µM | 9.89 µM | 36.3 µM | 20.6 µM | 43.9 µM | 17.5 µM | 64.8 µM | 27.9 µM | 63.9 µM | 13.9 µM | 41.8 µM | 10.3 µM | 26.2 µM | 12.1 µM | 29.6 µM | 10.8 µM | 27.6 µM |  | 
CC1CC(C[N+](=O)[O-])CC2(C1)OCCO2 (stereo not drawn) |  | > 100 µM |  |  |  |  |  | > 100 µM |  | > 100 µM |  | > 100 µM |  | > 100 µM |  | > 100 µM |  | > 100 µM | > 100 µM | 
CC(C)C[C@H](CC(=O)O)C(=O)N[C@@H](Cc1c[nH]c2ccccc12)C(=O)N[C@@H](C)c1ccccc1 | > 25 µM | > 25 µM |  |  | > 25 µM | > 25 µM | > 25 µM | > 25 µM | > 25 µM | > 25 µM | > 25 µM | > 25 µM | > 25 µM | > 25 µM | > 25 µM | > 25 µM | > 25 µM | > 25 µM | > 25 µM | > 25 µM
CCCCC(C(=O)C(=O)Nc1ccc(C)cc1C)C(=O)C(C)C (stereo not drawn) |  | > 100 µM |  | > 100 µM |  | > 100 µM |  | > 100 µM |  | > 100 µM |  |  |  | > 100 µM |  | > 100 µM |  | > 100 µM | > 100 µM | 
COC(=O)C(C(=O)C(=O)Nc1ccc(C)cc1)c1nc2ccc([N+](=O)[O-])cc2[nH]c1=O (stereo not drawn) |  | > 100 µM |  |  |  | > 100 µM |  | > 100 µM |  | > 100 µM |  | > 100 µM |  | > 100 µM |  | > 100 µM |  | > 100 µM | > 100 µM | 
CC[C@@]1(O)C(=O)OCc2c1cc1n(c2=O)Cc2cc3cc(Cl)ccc3nc2-1 |  |  | 0.0256 µM and 0.0415 µM | 1.32 µM and 0.709 µM | 0.0269 µM and 0.0187 µM | 0.203 µM | 0.0327 µM and 0.162 µM | 1.85 µM and 2.34 µM | 0.0305 µM and 0.0444 µM | 0.818 µM and 0.564 µM | 0.00946 µM and 0.022 µM | 0.298 µM and 0.843 µM | 0.0456 µM and 0.137 µM | 0.274 µM and 0.452 µM | 0.0082 µM and 0.0181 µM | 0.0501 µM and 0.0636 µM | 0.00266 µM | 0.0816 µM | 0.0118 µM | < 0.001 µM
COc1cc(/C=C/C(=O)c2cccc3ccccc23)cc(OC)c1OC |  | 13.8 µM |  |  |  | 14.4 µM |  | 43.4 µM |  | 24.9 µM |  |  |  | 25.7 µM |  | 23.8 µM |  | 30.5 µM | 14.2 µM | 
Nc1nc(N)c2c(n1)NC(c1sc(Cl)nc1Cl)CC(c1ccccc1)=N2 (stereo not drawn) | 3.7 µM | 13.9 µM | 3.72 µM | 18 µM |  |  | 7.08 µM | 23.4 µM | 6.33 µM | 19.1 µM | 3.27 µM | 14.3 µM | 3.6 µM | 13.7 µM | 3.69 µM | 13.9 µM | 3.04 µM | 15.6 µM | 14.6 µM | 4.05 µM
O=C(NCCCCCCCCCCCCNC(=O)c1cnc2ccccc2n1)c1cnc2ccccc2n1 |  | > 100 µM |  |  |  | > 100 µM |  | > 100 µM |  | > 100 µM |  | > 100 µM |  | > 100 µM |  | > 100 µM |  | 86.1 µM | > 100 µM | 
C/C(=C1/N=C(c2cc([N+](=O)[O-])ccc2Cl)N(c2ccc(Br)cc2)C1=O)c1ccc(N(CCC#N)CCC#N)cc1C |  | 29.5 µM |  | > 100 µM |  | > 100 µM |  | > 100 µM |  | > 100 µM |  |  |  | 99.7 µM |  | > 100 µM |  | > 100 µM | > 100 µM | 
COc1ccc(C(c2ccccc2C(=O)O)c2ccc(OC)c3ccccc23)c2ccccc12 |  |  |  | 50.8 µM |  | 27.5 µM |  | 25.5 µM |  | 27.9 µM |  | 32.7 µM |  | 26.6 µM |  | 34.2 µM |  | 19.4 µM |  | 
NC(Cc1ccccc1)C(=O)OCN1C(=O)C2C3C=CC(C2C1=O)C1C2C(=O)N(COC(=O)C(N)Cc4ccccc4)C(=O)C2C31 (stereo not drawn) |  | 33.9 µM and 46.2 µM |  | 95.4 µM and > 100 µM |  | > 100 µM |  | > 100 µM and 70.7 µM |  |  |  |  |  | 87 µM and 67.7 µM |  | 34.4 µM and 32.9 µM | 40.6 µM |  | 27.4 µM and 30.8 µM | 
CC(=O)OC1C[C@H]2C(OC(=O)c3ccccc3)C3C4(OC(C)=O)COC4C[C@H](OC(C)=O)[C@@]3(C)C(OC(C)=O)[C@H](OC(C)=O)C(=C1C)C2(C)C (stereo partly drawn) |  | > 100 µM |  |  |  | > 100 µM |  | > 100 µM |  | > 100 µM |  | 79.2 µM |  | > 100 µM |  | > 100 µM |  | 79.8 µM | > 100 µM | 
Cc1ccc2c(c1)[n+](=O)c(C(=O)c1cccs1)c(C(F)(F)F)n2[O-] | 2.47 µM and 0.731 µM | 50 µM and 15.9 µM | 1.63 µM and 1.78 µM | 11.5 µM and 15.3 µM | 2.76 µM | 50 µM |  | 0.332 µM |  |  | 1.37 µM and 0.23 µM |  | 0.923 µM and 0.163 µM | 2.6 µM and 0.979 µM | 0.648 µM and 0.177 µM | 1.57 µM and 0.423 µM | 1.35 µM | 50 µM |  | 0.616 µM and 0.359 µM
COc1cccc(/C=N/[N-]C(=O)c2ccncc2)c1[O-].[Mn+2].[OH3+] | 3.63 µM | > 100 µM | 24.7 µM | > 100 µM | 4.7 µM | > 100 µM | 8.29 µM | > 100 µM | 25.5 µM | > 100 µM |  |  | 3.51 µM | > 100 µM | 12.3 µM | 30.3 µM | 3.83 µM | 26.5 µM | > 100 µM | 4.34 µM
COc1ccc(-n2cc(-c3cc(OC)c(OC)c(OC)c3)nc2SCc2ccc(Cl)cc2)cc1OC | > 100 µM | > 100 µM | 65.5 µM | > 100 µM | > 100 µM | > 100 µM |  |  | > 100 µM | > 100 µM | 41.2 µM | > 100 µM | > 100 µM | > 100 µM | 41.7 µM | > 100 µM | 27.8 µM | > 100 µM | > 100 µM | > 100 µM
CC(=O)OCCOCn1c2ccccc2c2c3c(c4c5ccccc5n(COCCOC(C)=O)c4c21)C(=O)N(Cc1ccccc1)C3=O |  | > 100 µM |  | > 100 µM |  | > 100 µM |  | > 100 µM |  | > 100 µM |  |  |  |  |  | > 100 µM |  | > 100 µM | > 100 µM | 
